Data: US20260060993A1, “COMPOSITION FOR IMPROVEMENT OF INTESTINAL FLORA” (MEIJI CO., LTD., priority 2022, published 2026)
Entries after “also recorded” stand apart in the source; their conditions may differ.

Legend:
bifidobacteria = details: known from Non-patent documents 7 and 8; cited from earlier work
Parabacteroides bacteria [1] = assay: Human fecal culture system, relative abundance by 16S V3-V4 amplicon sequencing (Test Example 1); format: cell-based; details: 1% substance, feces of two healthy adults, 2 days at 37° C., anaerobic, pH 6.5, versus control without substance
Protocol: (§1) Each substance to be evaluated was added at a concentration of 1% to a diluted fecal solution in which feces of healthy adult origin were suspended in the GAM Semisolid without Dextrose “Nissui” (Nissui Pharmaceutical Co., Ltd.) for GAM glycolysis from which agar was removed by filtration. Fecal materials of two individuals were each tested without mixing them. The medium used for the test was allowed to stand in an anaerobic glove box at least overnight before use. For the culture, a microbioreactor BioLector Pro […]-Labs) and a plate with microfluidic channels were used, and the culture was performed for 2 days at 37° C. and 600 rpm in an anaerobic environment while maintaining a constant pH of 6.5 with 1.5 N HCl and sodium hydroxide during the culture. The prebiotic abilities of the added substances were evaluated by comparing the bacterial flora obtained after the culture with that obtained under the control condition in which the substances to be evaluated were not added. DNA was extracted and purified from the diluted fecal solutions after the culture by using Maxwell RSC PureFood GMO & Authentication Kit (Promega), and amplicon sequencing of the V3-V4 region was performed by using MiSeq (Illumina). The resulting fastq files were analyzed with QIIME2 (https://quime2.org/) to calculate the relative abundance of each intestinal bacterium.

Bifidobacterium bacteria = assay: as above; format: cell-based; details: 1% substance; for Change in relative abundance of Bifidobacterium bacteria: feces of two healthy adults, 2 days at 37° C., anaerobic, pH 6.5, versus control without substance
Protocol: as §1

lactase = target: T1, lactase (Kluyveromyces lactis, UniProt P00723); assay: Lactase treatment of the trisaccharide fraction, LCMS analysis; format: biochemical; details: 10% in phosphate-citrate buffer pH 6.5, 0.1% lactase (GODO-YNL), 40° C.
T1 construct: purchased Godo Shusei Co., Ltd. GODO-YNL
T1 sequence (P00723 whole entry): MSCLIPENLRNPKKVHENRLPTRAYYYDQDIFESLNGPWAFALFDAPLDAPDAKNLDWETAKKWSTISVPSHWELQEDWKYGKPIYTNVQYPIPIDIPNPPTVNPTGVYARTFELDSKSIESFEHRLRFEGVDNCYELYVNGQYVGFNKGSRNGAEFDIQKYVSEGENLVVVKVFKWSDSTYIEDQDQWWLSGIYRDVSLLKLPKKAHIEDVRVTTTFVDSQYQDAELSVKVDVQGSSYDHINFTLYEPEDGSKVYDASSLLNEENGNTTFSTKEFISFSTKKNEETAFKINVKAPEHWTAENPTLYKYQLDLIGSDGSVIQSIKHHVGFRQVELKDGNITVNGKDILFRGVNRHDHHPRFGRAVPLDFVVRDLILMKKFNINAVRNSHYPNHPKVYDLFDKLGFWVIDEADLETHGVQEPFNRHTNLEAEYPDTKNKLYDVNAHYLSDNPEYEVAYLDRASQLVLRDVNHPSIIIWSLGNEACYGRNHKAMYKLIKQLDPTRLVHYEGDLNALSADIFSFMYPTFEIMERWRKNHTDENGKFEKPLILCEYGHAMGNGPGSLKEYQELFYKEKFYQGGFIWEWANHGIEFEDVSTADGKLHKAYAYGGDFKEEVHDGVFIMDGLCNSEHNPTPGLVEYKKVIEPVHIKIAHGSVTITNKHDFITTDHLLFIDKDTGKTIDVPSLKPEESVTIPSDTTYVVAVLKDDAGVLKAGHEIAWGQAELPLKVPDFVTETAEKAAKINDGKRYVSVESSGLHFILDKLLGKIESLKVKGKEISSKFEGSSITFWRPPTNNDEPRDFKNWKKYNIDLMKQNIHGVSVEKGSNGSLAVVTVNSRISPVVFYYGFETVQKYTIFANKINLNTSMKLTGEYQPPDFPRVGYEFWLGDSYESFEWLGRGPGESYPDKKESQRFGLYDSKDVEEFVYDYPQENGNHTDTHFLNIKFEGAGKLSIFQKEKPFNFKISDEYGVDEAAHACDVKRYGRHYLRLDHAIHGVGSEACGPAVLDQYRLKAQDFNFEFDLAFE
Protocol: The purified trisaccharide fraction was lyophilized and dissolved in a phosphate-citrate buffer, pH 6.5 at a concentration of 10%. Then, 0.1% of lactase (product name GODO-YNL, Godo Shusei Co., Ltd.) was added to the solution, and the enzymatic reaction was allowed at 40° C.

[2] = test system: Parabacteroides distasonis; assay: Human fecal culture, 60 subjects, species-level analysis (Test Example 3); format: cell-based; details: 0.25% substance, n=60 fecal samples, 1 day at 37° C., anaerobic, versus distilled water; Wilcoxon's signed rank order test, p=2.07×10^−8
Protocol: Galactosylkojibiose (trisaccharide fraction) was added at a concentration of 0.25% to a diluted fecal solution in which feces of healthy adult origin were suspended in the GAM Semisolid without Dextrose “Nissui” (Nissui Pharmaceutical Co., Ltd.) from which agar was removed by filtration (n=60). The galactosylkojibiose (trisaccharide fraction) was the fractionated and purified product containing 4'-galactosylkojibiose as the main ingredient prepared in Production Example 2. The fecal samples for 60 subjects were aliquoted under refrigerated conditions immediately after excretion and frozen at -80° C. until use. The test was performed for each of the fecal samples without mixing them. The medium used for the test was allowed to stand in an anaerobic glove box at least overnight before use. […] The prebiotic ability of the added evaluation substance was evaluated by comparing the bacterial flora observed after the culture with that obtained under the control condition in which distilled water was added instead of the evaluation substance. […] The resulting fastq files were analyzed with QIIME2 (https://qiime2.org/) to calculate the relative abundance of each intestinal bacterium. […] The resulting fastq files were analyzed with QIIME2 (https://qiime2.org/), and confirmed that it was classified as that of […] at the bacterial species level. […]

Parabacteroides bacteria [3] = assay: Human fecal culture, 60 subjects, genus-level analysis (Test Example 3); format: cell-based; details: 0.25% substance, n=60 fecal samples, 1 day at 37° C., anaerobic, versus distilled water; Wilcoxon's signed rank test, p=3.59×10^−8
Protocol: Galactosylkojibiose (trisaccharide fraction) was added at a concentration of 0.25% to a diluted fecal solution in which feces of healthy adult origin were suspended in the GAM Semisolid without Dextrose “Nissui” (Nissui Pharmaceutical Co., Ltd.) from which agar was removed by filtration (n=60). The galactosylkojibiose (trisaccharide fraction) was the fractionated and purified product containing 4′-galactosylkojibiose as the main ingredient prepared in Production Example 2. The fecal samples for 60 subjects were aliquoted under refrigerated conditions immediately after excretion and frozen at −80° C. until use. The test was performed for each of the fecal samples without mixing them. The medium used for the test was allowed to stand in an anaerobic glove box at least overnight before use. For the culture, a 96-well deepwell plate was used, and the culture was performed for 1 day at 37° C. in an anaerobic environment. The prebiotic ability of the added evaluation substance was evaluated by comparing the bacterial flora observed after the culture with that obtained under the control condition in which distilled water was added instead of the evaluation substance. […] The resulting fastq files were analyzed with QIIME2 (https://qiime2.org/) to calculate the relative abundance of each intestinal bacterium.

| Structure (SMILES) | Effect on growth of bifidobacteria (bifidobacteria) | Change in relative abundance of Parabacteroides bacteria (Parabacteroides bacteria [1]) | Change in relative abundance of Bifidobacterium bacteria (Bifidobacterium bacteria) | Product formed by lactase treatment (lactase) | Change in relative abundance of species indicated as “Parabacteroides_” (judged Parabacteroides distasonis) [2] | Increase of relative abundance of Bifidobacterium bacteria compared with kojibiose (Bifidobacterium bacteria; all samples of the two subjects, comparison with kojibiose) | Change in relative abundance of Parabacteroides bacteria (genus level) (Parabacteroides bacteria [3]) |
| --- | --- | --- | --- | --- | --- | --- | --- |
| OCC1OC(O)C(O[C@H]2OC(CO)[C@@H](O)[C@H](O)C2O)[C@@H](O)[C@@H]1O (stereo partly drawn) [kojibiose] | growth-promoting effect | increase | increased |  |  |  |  |
| OCC1O[C@H](OC2C(O)[C@H](O[C@@H]3OC(CO)[C@H](O)C(O)C3O)C(CO)O[C@H]2O)C(O)C(O)[C@@H]1O (stereo partly drawn) [α-D-Glcp-(1→2)-[β-D-Galp-(1→4)-]D-Glcp] |  | increase | increased | formation of kojibiose | significant increase; also recorded: significantly increased | more significantly increased | significant increase |
